Measured values from patent US20240279220A1, “INDOLE COMPOUNDS AND METHODS OF USE” (Genzyme Corporation, priority 2021, published 2024).

Test system: NBD1/3D
Experiment: Aggregation analysis using differential static light scattering (DSLS), NBD1 thermal stability
Format: binding, Human
Settings: ΔTagg versus DMSO control; compound at 100 μM
Protocol: Purified recombinant NBD1 was produced using previously described methods (A. Schmidt, J. L. Mendoza, P. J. Thomas (2011) Biochemical and Biophysical Approaches to Probe CFTR Structure (365-376) M. D. Amaral, K. Kunzelmann (eds.), Cystic Fibrosis, Methods in Molecular Biology 741, Springer Science+Business Media). The effect of test compounds on thermal stability of NBD1 was evaluated by differential static light scattering (DSLS) using the Harbinger Stargazer-384 instrument (Epiphyte Three, Toronto, Canada).
Test compounds were dissolved and diluted to desired concentrations in 100% DMSO. The compounds or DMSO controls (100 nL) were stamped into wells of a […] low volume optical plate (Corning Inc., Corning, NY) using the Echo 555 acoustic liquid handler (Labcyte Inc., San Jose, CA).
NBD1 protein was diluted to 0.2 mg/ml in S200 buffer (50 mM Tris-HCl, 150 mM NaCl, 5 mM MgCl2, 2 mM ATP, 2 mM DTT, pH7.6) containing 1% glycerol. 10 uL of protein solution was aliquoted into the 384-well plate harboring the test compounds and 10 uL mineral oil was overlayed onto the protein solution, using the epMotion robotic liquid handler (Eppendorf North America, Hauppauge, NY). After placing into the Stargazer instrument, the plate was heated at 1° C. per minute to 70° C. Images were captured from 25° C. to 70° C. every 0.5° C. At the end of the experiment run, instrument software integrated image files and analyzed data automatically. A […] regression curve was generated for each well, representing the increase in light scattering over time. A temperature of aggregation (Tagg) was calculated based on the inflection point of the curve. To better compare data across experiments the average Tagg for DMSO control wells was calculated and subtracted from values for wells containing compounds to obtain a “ΔTagg” value. These ΔTagg values reflect stabilizing efficacy of the compounds.

| SMILES | DSLS NBD1/3D Human Stability delta-T (° C.) @ 100 (μM) |
| --- | --- |
| CC(c1nnc(-c2cc(Oc3c(F)cc4[nH]ccc4c3F)ccc2F)[nH]1)c1cccc(CCC(=O)O)c1F (single isomer, unassigned) [Example 252B, 3-(3-(1-(5-(5-((4,6-difluoro-1H-indol-5-yl)oxy)-2-fluorophenyl)-4H-1,2,4-triazol-3-yl)ethyl)-2-fluorophenyl)propanoic acid] | C (C: ≤5° C.) |
| CC(c1cn(C)c(-c2cc(Oc3c(F)cc4[nH]ccc4c3F)ccc2F)n1)c1cccc(CCC(=O)O)c1F (single isomer, unassigned) [Example 278A, 3-(3-(1-(2-(5-((4,6-difluoro-1H-indol-5-yl)oxy)-2-fluorophenyl)-1-methyl-1H-imidazol-4-yl)ethyl)-2-fluorophenyl)propanoic acid] | C (C: ≤5° C.) |
| Cc1c(Oc2cccc(-c3ccn(Cc4cccc(CCC(=O)O)c4)n3)c2)ccc2[nH]ccc12 [Example 1, 3-(3-((3-(3-((4-Methyl-1H-indol-5-yl)oxy)phenyl)-1H-pyrazol-1-yl)methyl)phenyl)propanoic acid] | B (B: 5-10° C.) |
| Cc1c(Oc2cccc(-c3ccn(C(C)c4cccc(CCC(=O)O)c4)n3)c2)ccc2[nH]ccc12 (centres unmarked) [Example 2, 3-(3-(1-(3-(3-((4-methyl-1H-indol-5-yl)oxy)phenyl)-1H-pyrazol-1-yl)ethyl)phenyl)propanoic acid] | B (B: 5-10° C.) |
| Cc1c(Oc2cccc(-c3ccnn3C(C)c3cccc(CC(=O)O)c3)c2)ccc2[nH]ccc12 (centres unmarked) [Example 3, 2-(3-(1-(5-(3-((4-methyl-1H-indol-5-yl)oxy)phenyl)-1H-pyrazol-1-yl)ethyl)phenyl)acetic acid] | C (C: ≤5° C.) |
| Cc1c(Oc2cccc(-c3ccn(C(C)c4cccc(CC(=O)O)c4)n3)c2)ccc2[nH]ccc12 (centres unmarked) [Example 4, 2-(3-(1-(3-(3-((4-methyl-1H-indol-5-yl)oxy)phenyl)-1H-pyrazol-1-yl)ethyl)phenyl)acetic acid] | B (B: 5-10° C.) |
| Cc1c(Oc2cccc(-c3ccn(Cc4cccc(CC(=O)O)c4)n3)c2)ccc2[nH]ccc12 [Example 5, 2-(3-((3-(3-((4-methyl-1H-indol-5-yl)oxy)phenyl)-1H-pyrazol-1-yl)methyl)phenyl)acetic acid] | B (B: 5-10° C.) |
| Cc1c(Oc2cccc(-c3ccn(Cc4cccc(CCCO)c4)n3)c2)ccc2[nH]ccc12 [Example 6, 3-(3-((3-(3-((4-Methyl-1H-indol-5-yl)oxy)phenyl)-1H-pyrazol-1-yl)methyl)phenyl)propan-1-ol] | C (C: ≤5° C.) |
| COC(=O)/C=C/c1cccc(Cn2ccc(-c3cccc(Oc4ccc5[nH]ccc5c4CO)c3)n2)c1 [Example 7, Methyl (E)-3-(3-((3-(3-((4-(hydroxymethyl)-1H-indol-5-yl)oxy)phenyl)-1H-pyrazol-1-yl)methyl)phenyl)acrylate] | C (C: ≤5° C.) |
| COC(=O)CCc1cccc(Cn2ccc(-c3cccc(Oc4ccc5[nH]ccc5c4CO)c3)n2)c1 [Example 8, Methyl 3-(3-((3-(3-((4-(hydroxymethyl)-1H-indol-5-yl)oxy)phenyl)-1H-pyrazol-1-yl)methyl)phenyl)propanoate] | C (C: ≤5° C.) |
| O=C(O)/C=C/c1cccc(Cn2ccc(-c3cccc(Oc4ccc5[nH]ccc5c4CO)c3)n2)c1 [Example 9, (E)-3-(3-((3-(3-((4-(Hydroxymethyl)-1H-indol-5-yl)oxy)phenyl)-1H-pyrazol-1-yl)methyl)phenyl)acrylic acid] | B (B: 5-10° C.) |
| O=C(O)CCc1cccc(Cn2ccc(-c3cccc(Oc4ccc5[nH]ccc5c4CO)c3)n2)c1 [Example 10, 3-(3-((3-(3-((4-(Hydroxymethyl)-1H-indol-5-yl)oxy)phenyl)-1H-pyrazol-1-yl)methyl)phenyl)propanoic acid] | B (B: 5-10° C.) |
| O=C(O)Cc1cccc(Cn2ccc(-c3cccc(Oc4ccc5[nH]ccc5c4CO)c3)n2)c1 [Example 11, 2-(3-((3-(3-((4-(Hydroxymethyl)-1H-indol-5-yl)oxy)phenyl)-1H-pyrazol-1-yl)methyl)phenyl)acetic acid] | B (B: 5-10° C.) |
| COP(=O)(Cc1cccc(Cn2ccc(-c3cccc(Oc4ccc5[nH]ccc5c4CO)c3)n2)c1)OC [Example 12, dimethyl (3-((3-(3-((4-(hydroxymethyl)-1H-indol-5-yl)oxy)phenyl)-1H-pyrazol-1-yl)methyl)benzyl)phosphonate] | C (C: ≤5° C.) |
| COP(=O)(O)Cc1cccc(Cn2ccc(-c3cccc(Oc4ccc5[nH]ccc5c4CO)c3)n2)c1 [Example 13, methyl hydrogen (3-((3-(3-((4-(hydroxymethyl)-1H-indol-5-yl)oxy)phenyl)-1H-pyrazol-1-yl)methyl)benzyl)phosphonate] | B (B: 5-10° C.) |
| Cc1c(Oc2ccc(F)c(-c3ccn(Cc4cccc(CCC(=O)O)c4)n3)c2)c(F)cc2[nH]ccc12 [Example 14, 3-(3-((3-(2-fluoro-5-((6-fluoro-4-methyl-1H-indol-5-yl)oxy)phenyl)-1H-pyrazol-1-yl)methyl)phenyl)propanoic acid] | B (B: 5-10° C.) |
| CNC(=O)c1c(Oc2cccc(-c3ccn(Cc4cccc(/C=C/C(=O)O)c4)n3)c2)ccc2[nH]ccc12 [Example 15, (E)-3-(3-((3-(3-((4-(Methylcarbamoyl)-1H-indol-5-yl)oxy)phenyl)-1H-pyrazol-1-yl)methyl)phenyl)acrylic acid] | B (B: 5-10° C.) |
| CNC(=O)c1c(Oc2cccc(-c3ccn(Cc4cccc(CCC(=O)O)c4)n3)c2)ccc2[nH]ccc12 [Example 16, 3-(3-((3-(3-((4-(Methylcarbamoyl)-1H-indol-5-yl)oxy)phenyl)-1H-pyrazol-1-yl)methyl)phenyl)propanoic acid] | B (B: 5-10° C.) |
| Cc1c(Oc2ccc(F)c(-c3ccn(Cc4cccc(CCC(N)=O)c4)n3)c2)c(F)cc2[nH]ccc12 [Example 17, 3-(3-((3-(2-Fluoro-5-((6-fluoro-4-methyl-1H-indol-5-yl)oxy)phenyl)-1H-pyrazol-1-yl)methyl)phenyl)propanamide] | C (C: ≤5° C.) |
| Cc1c(Oc2ccc(F)c(-c3ccn(Cc4cnc(CCC(=O)O)s4)n3)c2)c(F)cc2[nH]ccc12 [Example 18, 3-(5-((3-(2-Fluoro-5-((6-fluoro-4-methyl-1H-indol-5-yl)oxy)phenyl)-1H-pyrazol-1-yl)methyl)thiazol-2-yl)propanoic acid] | C (C: ≤5° C.) |
| Cc1c(Oc2cccc(-c3nn(Cc4cccc(CCC(=O)O)c4)cc3F)c2)c(F)cc2[nH]ccc12 [Example 19, 3-(3-((4-Fluoro-3-(3-((6-fluoro-4-methyl-1H-indol-5-yl)oxy)phenyl)-1H-pyrazol-1-yl)methyl)phenyl)propanoic acid] | C (C: ≤5° C.) |
| Cc1c(Oc2cccc(-c3c(F)cnn3Cc3cccc(CCC(=O)O)c3)c2)c(F)cc2[nH]ccc12 [Example 20, 3-(3-((4-Fluoro-5-(3-((6-fluoro-4-methyl-1H-indol-5-yl)oxy)phenyl)-1H-pyrazol-1-yl)methyl)phenyl)propanoic acid] | C (C: ≤5° C.) |
| Cc1c(Oc2cccc(-c3ccc(Cc4cccc(CCC(=O)O)c4)[nH]3)c2)c(F)cc2[nH]ccc12 [Example 21, 3-(3-((5-(3-((6-Fluoro-4-methyl-1H-indol-5-yl)oxy)phenyl)-1H-pyrrol-2-yl)methyl)phenyl)propanoic acid] | C (C: ≤5° C.) |
| CS(=O)(=O)c1c(Oc2ccc(F)c(-c3ncc(Cc4cccc(CCC(=O)O)c4)[nH]3)c2)c(F)cc2[nH]ccc12 [Example 22, 3-(3-((2-(2-Fluoro-5-((6-fluoro-4-(methylsulfonyl)-1H-indol-5-yl)oxy)phenyl)-1H-imidazol-5-yl)methyl)phenyl)propanoic acid] | A (A: T ≥ 10° C.) |
| CS(=O)(=O)c1c(Oc2ccc(F)c(-c3ncc(Cc4cccc(CCC(N)=O)c4)[nH]3)c2)c(F)cc2[nH]ccc12 [Example 24, 3-(3-((2-(2-Fluoro-5-((6-fluoro-4-(methylsulfonyl)-1H-indol-5-yl)oxy)phenyl)-1H-imidazol-5-yl)methyl)phenyl)propanamide] | B (B: 5-10° C.) |
| O=C(O)CCc1cccc(Cc2nnc(-c3cccc(Oc4c(F)cc5[nH]ccc5c4[S+]([O-])C(F)F)c3)[nH]2)c1 (centres unmarked) [Example 25, 3-(3-((5-(3-((4-((Difluoromethyl)sulfinyl)-6-fluoro-1H-indol-5-yl)oxy)phenyl)-4H-1,2,4-triazol-3-yl)methyl)phenyl)propanoic acid] | C (C: ≤5° C.) |
